Assay results reported in article PMC12442392, “Identification of a novel ipp gene cluster responsible for 2-isopropylphenol degradation in strain Rhodococcus sp. D-6” (Applied and Environmental Microbiology, 2025).
Substitutions are numbered along the chain they refer to.

What was measured:
IppB [1] = target: T1, IppB (Rhodococcus sp. D-6, UniProt A0AAU7V3K6); test: Michaelis-Menten kinetics, nonlinear regression; type: biochemical; details: 1.0 µM IppB, 10 µM Fe^2+; 20 mM Tris-HCl pH 7.4, 30°C; read-out: apparent Km
T1 sequence (A0AAU7V3K6 1-190): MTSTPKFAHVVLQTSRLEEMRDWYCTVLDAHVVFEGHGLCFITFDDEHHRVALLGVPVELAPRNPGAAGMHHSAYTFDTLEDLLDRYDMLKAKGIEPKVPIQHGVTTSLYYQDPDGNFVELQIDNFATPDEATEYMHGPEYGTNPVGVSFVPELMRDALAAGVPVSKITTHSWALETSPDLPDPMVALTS

IppB [2] = target: T2, IppB (Rhodococcus sp. D-6, UniProt A0AAU7V3K6, H72A, form not given); test: enzyme activity assay; type: biochemical; details: standard assay 200 µM substrate, 1.0 µM enzyme, 10 µM Fe^2+; 20 mM Tris-HCl pH 7.4, 30°C; Fe(II)-binding residue
T2 sequence (A0AAU7V3K6 1-190 H72A): T1 sequence (A0AAU7V3K6 1-190) with H72A

IppB [3] = target: T3, IppB (Rhodococcus sp. D-6, UniProt A0AAU7V3K6, E120A, form not given); test: enzyme activity assay; type: biochemical; details: standard assay 200 µM substrate, 1.0 µM enzyme, 10 µM Fe^2+; 20 mM Tris-HCl pH 7.4, 30°C; Fe(II)-binding residue
T3 sequence (A0AAU7V3K6 1-190 E120A): T1 sequence (A0AAU7V3K6 1-190) with E120A

IppB [4] = target: T4, IppB (Rhodococcus sp. D-6, UniProt A0AAU7V3K6, H9A, form not given); test: enzyme activity assay; type: biochemical; details: standard assay 200 µM substrate, 1.0 µM enzyme, 10 µM Fe^2+; 20 mM Tris-HCl pH 7.4, 30°C; Fe(II)-binding residue
T4 sequence (A0AAU7V3K6 1-190 H9A): T1 sequence (A0AAU7V3K6 1-190) with H9A

[5] = tested on: T5, IppA1A2 (IppA1 with reductase component IppA2); test: Michaelis-Menten kinetics, nonlinear regression; type: biochemical, Rhodococcus sp. D-6; details: 250 µM NADH, 10 µM FAD, 1.2 µM IppA1, 0.4 µM IppA2; 20 mM Tris-HCl pH 7.4, 30°C; read-out: apparent Km
T5 construct: mixed at molar ratio 3:1 in assay; with 2-isopropylphenol monooxygenase, reductase component (flavin reductase)

Row | Structure (SMILES) | Km (IppB [1]) | activity lost (no turnover) (IppB [2]) | activity lost (no turnover) (IppB [3]) | activity lost (no turnover) (IppB [4]) | Km [5]
1 | CC(C)c1cc(O)ccc1O [2-isopropylhydroquinone] | 29.1 ± 1.54 µM | all variants lost their activity against 2-isopropylhydroquinone | all variants lost their activity against 2-isopropylhydroquinone | all variants lost their activity against 2-isopropylhydroquinone | 
2 | CC(C)c1ccccc1O [2-isopropylphenol] |  |  |  |  | 60.5 ± 1.27 µM
